SMILES strings stand for the structures.

One experiment concerns unselective cation channels (UCC). Briefly: Thapsigargin (0.1 μM) stimulated Ca^2+ entry through unselective cation channels in fura-2-charged RBL-hm 1 cells. To be noted: RBL-hm 1 cells, Thapsigargin (0.1 μM) stimulation, 10 μM test substance (Table 21). The experiment is classed as cell-based, rat. The source says:
As a measurement of the cell activation or as a measurement of the inhibition thereof by UCC blockers, the kinetics of the cytoplasmic calcium ion concentration in fura-2-charged cells is quantified fluorometrically using the method described by GRYNKIEWICZ et al. (1985).
Consequently the Ca^2+ -stores are rapidly depleted. As described by J. PUTNEY (Calcium, 11, 611-624, 1990) the depletion of these stores constitutes the physiological stimulation for opening up unselective cation channels in the cell membrane. The result of this is a massive influx of Na^+ and Ca^2+ into the cell. Because of these properties, Thapsigargin is suitable as an indirect stimulator for agonist- and IP3-independent opening up of the unselective cation channels.
The functional endothelin antagonism of the substances according to the invention is mediated through a blockade of the unselective cation channels. Consequently, detection of a functional Thapsigargin-antagonism on RBL-hm1 cells is also a suitable screening method for functional endothelin antagonists.
For screening purposes, fura-2-charged adhesive RBL-hm 1 cells are stimulated with 0.1 μM Thapsigargin in a Ca^2+ -free incubation medium. After 4 minutes, extracellular Ca^2+ is restored to a concentration of 1.5 mM and, using the fura-2-fluorescence, the excessive increase in the cytoplasmic Ca^2+ -concentration caused by a massive transmembranal Ca^2+ -entry through unselective cation channels is recorded.
This entry is to be inhibited solely by unselective cation channel blockers in a dosage-dependent manner. Neither conventional calcium antagonists nor specific blockers of agonists which stimulate the IP3 -turnover are able to inhibit the transmembranal Ca^2+ -entry triggered indirectly by Thapsigargin. The compounds of the present invention are distinguished by their inhibition of UCC.
The fluorometric calcium measurement in the cytoplasm of individual adhering RBL-hm1 cells is carried out analogously to the method described by KUDO and OGURA (1986) for neuronal cells. An AXIOVERT 35 fluorescence microscope made by ZEISS is used in conjunction with an imaging system made by HAMAMATSU, consisting of the ICMS-image processing system, residual light camera with control unit and image intensifier DVS 3000.
The kinetics of the cytoplasmic Ca^2+ -concentration is recorded continuously as a concentration/time curve after the cell activation stimulated by Thapsigargin (0.1 μM). The curves of two activated cell cultures are compared in the presence and absence of 10 μM test substance. The area under these curves (area under the curve=AUC) is integrated and recorded as a measurement of cell activation. The inhibitory potency of the UCC-blockers tested is determined using the following equation: [formula] %H=the percentage inhibition of the calcium entry through unselective cation channels which is stimulated and inhibited by 10 μM of test substance.
AUCinh =area under the curve recorded in the presence of the stimulant plus 10 μM inhibitory test substance.
AUCcontrol =area under the curve which is recorded only after the addition of the stimulant.
The percentage inhibition of UCC after Thapsigargin stimulation (0.1 μM Thapsigargin) in RBL-hm 1 cells is given. The uniform concentration of the test substances is 10^-5 mol).
On to `COc1cc2c(cc1OC)C(C(C(=O)NCc1c(F)cccc1OC)c1ccccc1)=NCC2` (stereo not shown) [F], for which the “% Inhibition” value stood at 48.01%.

With `COc1cc2c(cc1OC)C(=C(C(=O)NCCc1cccc(OC)c1OC)c1ccccc1)NCC2` [G], the “% Inhibition” value is 57.52%.

As to `COc1cc2c(cc1OC)C(=C(C(=O)NC(C)COc1ccccc1)c1ccccc1)NCC2` (stereo not shown) [H], the “% Inhibition” value stood at 57.06%.

As to `COc1cc2c(cc1OC)C(C(C(=O)NCCc1ccsc1)c1ccccc1)=NCC2` (stereo not shown) [O], the “% Inhibition” value worked out at 63.32%.

For the compound `COc1cc2c(cc1OC)C(=C(C(=O)NC(Cc1ccccc1)c1ccccc1)c1ccccc1)NCC2` (stereo not shown) [Q], the “% Inhibition” value is 64.28%.

Take `COCCNC(=O)C(=C1NCCc2cc(OC)c(OC)cc21)c1ccccc1` [compound 17]: the “% Inhibition” value is given as 52.53%.

As for `COCCCNC(=O)C(=C1NCCc2cc(OC)c(OC)cc21)c1ccccc1` [compound 18], the “% Inhibition” value worked out at 57.53%.

As to `COc1cc2c(cc1OC)C(=C(C(=O)NCCCN(C)C)c1ccccc1)NCC2` [compound 20], the “% Inhibition” value is reported as 57.38%.

As for `COc1cc2c(cc1OC)C(C(C(=O)Nc1cccnc1)c1ccccc1)=NCC2` (stereo not shown) [compound 33], the “% Inhibition” value came to 60.55%.

Regarding `COc1cc2c(cc1OC)C(C(C(=O)N(C)C)c1ccccc1)=NCC2` (stereo not shown) [compound 36], the “% Inhibition” value amounted to 52.19%.

`CCN(CC)C(=O)C(C1=NCCc2cc(OC)c(OC)cc21)c1ccccc1` (stereo not shown) [compound 37]: the “% Inhibition” value came to 75.77%.

With `COc1cc2c(cc1OC)C(C(C(=O)N1CCOCC1)c1ccccc1)=NCC2` (stereo not shown) [compound 39], the “% Inhibition” value was 48.62%.

For `COc1cc2c(cc1OC)C(C(C(=O)N1CCSCC1)c1ccccc1)=NCC2` (stereo not shown) [compound 40], the “% Inhibition” value was 64.99%.

As to `COc1cc2c(cc1OC)C(=C(C(=O)N1CCN(Cc3ccccc3)CC1)c1ccccc1)NCC2` [compound 42], the “% Inhibition” value is given as 84.83%.

As to `COc1cc2c(cc1OC)C(C(C(=O)N1CCN(C)CC1)c1ccccc1)=NCC2` (stereo not shown) [compound 43], the “% Inhibition” value is listed as 48.69%.

With `O=C(NCCc1ccc2c(c1)OCO2)C(=C1NCCc2cc3c(cc21)OCO3)c1ccccc1` [compound 46], the “% Inhibition” value is listed as 68.06%.

Regarding `O=C(NCCN1CCOCC1)C(=C1NCCc2cc3c(cc21)OCO3)c1ccccc1` [compound 48], the “% Inhibition” value was 61.34%.

For `COc1ccc(CCNC(=O)C(=C2NCCc3c2[nH]c2ccccc32)c2ccccc2)cc1OC` [compound 83], the “% Inhibition” value was determined as 66.76%.

Consider `O=C(NCCN1CCOCC1)C(=C1NCCc2c1[nH]c1ccccc21)c1ccccc1` [compound 89], for which the “% Inhibition” value is on record as 53.38%.

`COc1cc2c(cc1OC)C(C(C(=O)NCCC(c1ccccc1)c1ccccc1)c1ccccc1)=NCC2` (stereo not shown) [compound 101]: the “% Inhibition” value is recorded as 59.62%.

For `COc1cc2c(cc1OC)C(C(C(=O)NCCc1ccccc1C)c1ccccc1)=NCC2` (stereo not shown) [compound 102], the “% Inhibition” value was 80.77%.

In the case of `COc1cc(CCNC(=O)C(C2=NCCc3cc(OC)c(OC)cc32)c2ccccc2)cc(OC)c1` (stereo not shown) [compound 104], the “% Inhibition” value is given as 54.67%.

For the compound `COc1cccc(CCNC(=O)C(C2=NCCc3cc(OC)c(OC)cc32)c2ccccc2)c1` (stereo not shown) [compound 105], the “% Inhibition” value was 45.09%.

As for `COc1cc2c(cc1OC)C(C(C(=O)NCc1cc(C)ccc1C)c1ccccc1)=NCC2` (stereo not shown) [compound 106], the “% Inhibition” value is on record as 65.69%.

Regarding `COc1cc2c(cc1OC)C(C(C(=O)NCCCc1ccc(OC)c(OC)c1OC)c1ccccc1)=NCC2` (stereo not shown) [compound 108], the “% Inhibition” value is given as 44.45%.

In the case of `COc1cc2c(cc1OC)C(=C(C(=O)NCCc1ccc(OC)c(C)c1C)c1ccccc1)NCC2` [compound 109], the “% Inhibition” value was 74.18%.

On to `CCOc1ccccc1CCCNC(=O)C(C1=NCCc2cc(OC)c(OC)cc21)c1ccccc1` (stereo not shown) [compound 115], for which the “% Inhibition” value turned out to be 75.53%.

As to `COc1cc2c(cc1OC)C(=C(C(=O)NCC13CC4CC(CC(C4)C1)C3)c1ccccc1)NCC2` [compound 132], the “% Inhibition” value was 65.14%.

As for `COc1cc(N=[N+]=[N-])ccc1CCNC(=O)C(C1=NCCc2cc(OC)c(OC)cc21)c1ccccc1` (stereo not shown) [compound 133], the “% Inhibition” value stood at 68.15%.

Staying with this experiment, now noted: Table 16; %inhibition, 10 μM test substance.
With `O=C(NCCc1cccc(C(F)(F)F)c1)C(C1=NCCc2cc(OCc3ccccc3)c(Cl)cc21)c1ccccc1` (stereo not shown) [drawing 223], the “%” value is reported as 32.90%.

The same experiment, now with this note: Table 17; 10 μM test substance.
With `COc1cc2c(cc1OC)C(C(C(=O)NCCC(C)(C)C)c1ccccc1)=NCC2` (stereo not shown), the “percent inhibition of Ca2+ entry” value was 80.97%.

Regarding `COc1cc2c(cc1OC)C(C(C(=O)NCC13CC4CC(CC(C4)C1)C3)c1ccccc1)=NCC2` (stereo not shown) [HNCH2-1-Adam.], the “percent inhibition of Ca2+ entry” value worked out at 65.1%.

Take `COc1cc(N=[N+]=[N-])ccc1CCNC(=O)C(C1=NCCc2cc(OC)c(OC)cc21)c1ccccc1` (stereo not shown) [drawing 231]: the “percent inhibition of Ca2+ entry” value was found to be 68.2%.

Still in this experiment, the particulars now being: Table 20; 10 μM test substance.
For the compound `COc1cc2c(cc1O)CCN=C2C(C(=O)N(CCc1ccc(OC)c(OC)c1OC)CCc1ccc(OC)c(OC)c1OC)c1ccccc1` (stereo not shown), the “percent inhibition of Ca2+ entry” value is given as 86.70%.

For the compound `COc1cc2c(cc1OCc1ccccc1)CCN=C2C(C(=O)NCCC(C)(C)C)c1ccccc1` (stereo not shown) [NHCH2 CH2C(CH3)3], the “percent inhibition of Ca2+ entry” value was 61.85%.

`O=C(NCCc1cccc(C(F)(F)F)c1)C(C1=NCCc2cc(OCc3ccccc3)c(Cl)cc21)c1ccccc1` (stereo not shown) [drawing 274]: the “percent inhibition of Ca2+ entry” value is reported as 32.9%.

The next experiment concerns RBL-2H3-cells. Briefly: DNP-BSA antigen-induced activation of sensitised RBL-2H3 cells. The experiment is classed as cell-based. Particulars: Rattus norvegicus, read-out: inhibition of the antigen-induced cell activation. The protocol: Individual RBL-2H3-cells (a tumour cell line related to the mast cells) adhering to glass slides are used.
The cultivation and attachment of the RBL-2H3-cells are carried out by the method described by HIDE and BEAVEN (1991). In order to sensitise the adhesive RBL-2H3-cells the cells are incubated for 2 hours at ambient temperature with a 1:2000 diluted commercial gammaglobulin E-solution against a dinitrophenol-bovine serum albumin complex (DNP-BSA-antigen). The cells are then washed. By the addition of 0.1 ml of DNP-BSA-solution (10 μg/ml) there is a massive immunological cell activation which is mediated by a cytoplasmic Ca^2+ -overload. The fluorometric calcium measurement in the cytoplasm of individual adhering RBL-2H3-cells is carried out analogously to the method described by KUDO and OGURA (1986) for neuronal cells, which is also explained hereinbefore in this specification.
Regarding `O=C(O)c1cc(=O)c2c(OCC(O)COc3cccc4oc(C(=O)O)cc(=O)c34)cccc2o1` [chromoglycate], the inhibition at 10 µM was around 50%.

The test system of the next experiment is Ca^2+-ATPase of intracellular IP3-sensitive Ca^2+-stores.
Assay: not given
Particulars: in words; cited from earlier work.
For the compound `C/C=C(/C)C(=O)O[C@H]1C(C)=C2[C@H]([C@@H]1OC(=O)CCCCCCC)[C@@](C)(OC(C)=O)C[C@H](OC(=O)CCC)[C@@]1(O)[C@H]2OC(=O)[C@@]1(C)O` [THAPSIGARGIN], the “inhibition of Ca^2+-ATPase” value was “selectively and irreversibly inhibits”.

The next experiment concerns unselective cation channels (UCC). The experiment can be described thus: Thapsigargin (0.1 μM) stimulated Ca^2+ entry through unselective cation channels in fura-2-charged RBL-hm 1 cells. The experiment is classed as cell-based, rat. To be noted: Table 17.
Regarding `COc1cc2c(cc1OC)C(C(C(=O)NCCC(C)(C)C)c1ccccc1)=NCC2` (stereo not shown), the IC50 is 7.57 µM.

The same experiment, now with this note: Table 20.
Compound `COc1cc2c(cc1O)CCN=C2C(C(=O)N(CCc1ccc(OC)c(OC)c1OC)CCc1ccc(OC)c(OC)c1OC)c1ccccc1` (stereo not shown) had an IC50 of 3.47 µM.

What is called % Inhibition is the percentage by which the read-out fell short of the control. High values mean a response far below the control, low ones a response near the control. What is called inhibition is the drop in the measured response relative to a control, in per cent. A word on the IC50: it is the point on the concentration scale where inhibition reaches its midpoint. Read a low IC50 as greater potency in that assay.

The values above are taken from patent US5674878A, “Anellated dihydropyridines and the use thereof for the production of pharmaceutical preparations” (Boehringer Ingelheim KG, priority 1992, dated 1997).
